# Laboratory results as given in paper PMC7611940, “A Conformation Selective Mode of Inhibiting SRC Improves Drug Efficacy and Tolerability” (Cancer Research, 2021).
# Biological target: SRC (Homo sapiens, UniProt P12931)
# Experiment: inhibition of SRC autophosphorylation (pY419) in cells, Western blot
# Type: cell-based
# Sequence of SRC (P12931 2-536): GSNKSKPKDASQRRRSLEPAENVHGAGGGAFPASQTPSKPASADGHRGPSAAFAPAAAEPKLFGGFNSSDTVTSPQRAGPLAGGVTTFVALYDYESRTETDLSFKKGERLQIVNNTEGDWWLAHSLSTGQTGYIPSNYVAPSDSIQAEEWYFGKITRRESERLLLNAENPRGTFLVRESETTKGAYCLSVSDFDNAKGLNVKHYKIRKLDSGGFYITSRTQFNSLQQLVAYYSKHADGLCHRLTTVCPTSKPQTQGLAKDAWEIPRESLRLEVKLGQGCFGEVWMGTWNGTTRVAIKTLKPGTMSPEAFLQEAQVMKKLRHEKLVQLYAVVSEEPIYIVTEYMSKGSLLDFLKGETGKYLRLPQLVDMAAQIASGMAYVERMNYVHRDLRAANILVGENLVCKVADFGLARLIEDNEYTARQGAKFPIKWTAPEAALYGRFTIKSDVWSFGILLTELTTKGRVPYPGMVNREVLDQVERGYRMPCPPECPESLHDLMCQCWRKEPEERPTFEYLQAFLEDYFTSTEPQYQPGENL
smiles,measurement,value
COc1cc(Nc2c(C#N)cnc3cc(OCCCN4CCN(C)CC4)c(OC)cc23)c(Cl)cc1Cl [bosutinib],"inhibition of SRC autophosphorylation (pY419) in cells, Western blot",Bosutinib and saracatinib displayed weaker inhibition of SRC autophosphorylation in all the cell lines tested
